# Measured values reported in patent US20140162309A1, “Arsenical Fluorescent Agents and Assays” (priority 2010, published 2014).
# Test: Fluorimetric response of arsenical dye upon introduction of TSH2 (liquid-liquid method)
# Description: When unbound, FlAsH-EDT2 is virtually non-fluorescent. Upon binding of four sulfur atoms, free rotation about the As—C bond is restricted, and the dye becomes brightly fluorescent. Since this visualization method labels proteins inside of cells with low background fluorescence, we hypothesized that this molecular sensor could detect the parasite metabolite without interference from other thiols present in biological fluids. The binding of two molecules of TSH2 should prevent the free rotation about the As—C bond in FlAsH, causing a fluorimetric response.
# FlAsH-EDT2 was virtually non-fluorescent, but upon introduction of TSH2, the fluorescence intensity rose. After approximately 10 minutes, the reaction reached saturation. […] The excitation and emission maxima for the conjugate were 505 nm and 527 nm respectively. This increase in fluorescence is readily detectable without a fluorimeter using a simple handheld black light such as those used at airport security checkpoints. This detection method could be implemented easily in a low technology, resource poor setting. We examined the limits of detection of the metabolite with FlAsH-EDT2. In our liquid-liquid method, a 10-fold excess of the metabolite is sufficient to observe a fluorimetric response within twenty minutes. Therefore, 2.5 nmol of the dye can be used to detect 25 nmol of the metabolite. While lower concentrations were detectable using a fluorimeter, the conjugation was too slow to be practical. However, FlAsH-EDT2 was not designed and is not optimized for this purpose, and it requires two molecules of TSH2 to bind in order to achieve the desired fluorescence response.
compound,measurement,setting,value
O=C(O)c1ccccc1-c1c2ccc(=O)c([As]3SCCS3)c-2oc2c([As]3SCCS3)c(O)ccc12 [FlAsH-EDT2],amount of metabolite detected (limit of detection),"2.5 nmol of the dye, liquid-liquid method",25 nmol
same,time until the reaction reached saturation,after introduction of TSH2,approximately 10 minutes
same,excess of the metabolite sufficient to observe a fluorimetric response,"liquid-liquid method, response within twenty minutes",10 fold
same,fluorescence of unbound dye as % of the fluorescence of the FlAsH-(TSH2)2 conjugate,normalized fluorescence measurements,0.4%
